Measurements taken from publication PMC11840605, “Crystallographic and Thermodynamic Evidence of Negative Coupling in the Flavin-Dependent Tryptophan Halogenases AbeH and BorH” (ACS Omega, 2025).
Entries after “also recorded” stand apart in the source; their conditions may differ.

Columns and labels:
AbeH/FAD = assay: Isothermal titration calorimetry, Trp into AbeH preincubated with FAD; format: binding, uncultured soil actinomycetes
Protocol: ITC experiments were performed using a VP-ITC isothermal titration calorimeter (MicroCal) in 20 mM HEPES pH 7.5, 350 mM NaCl, 1 mM ethylenediamine tetraacetic acid (EDTA) and 15% (v/v) glycerol. Solutions of AbeH, BorH, FAD (Chem-Implex), and Trp (Acros Organics) were prepared in the same buffer and degassed under vacuum at 30 °C for 20 min before loading in the syringe or cell. To analyze formation of binary complexes, AbeH or BorH was placed inside the cell, and ligand (FAD or Trp) was injected. For ternary complex titration, one ligand was preincubated with the macromolecule for 30 min at 30 °C to form binary complexes of AbeH/FAD, AbeH/Trp, BorH/FAD, and BorH/Trp before titrating with the second ligand. […] Formation of FADH2 by sodium dithionite was verified using absorbance and fluorescence spectrophotometry.
ITC experiments were performed with reference power set to 10 μcal/s and Milli-Q water in the reference cell. […] Heats of dilution for all titrants were measured by titrating ligand into buffer for binary complex titrations, and by titrating ligand into a solution containing the other ligand but no protein for ternary complex titration. […]
Titrations were analyzed by manually integrating each injection, subtracting the heat of dilution, and carrying out nonlinear least-squares fit of the calorimetric binding data to a one-site model using Origin 7.0 (Origin Lab). […]

AbeH [1] = molecular target: T1, AbeH (uncultured bacterium, UniProt F6LWA5); assay: Time-course of in vitro Trp chlorination and bromination by AbeH; format: biochemical, uncultured soil actinomycetes
T1 sequence (F6LWA5 entry or part of it): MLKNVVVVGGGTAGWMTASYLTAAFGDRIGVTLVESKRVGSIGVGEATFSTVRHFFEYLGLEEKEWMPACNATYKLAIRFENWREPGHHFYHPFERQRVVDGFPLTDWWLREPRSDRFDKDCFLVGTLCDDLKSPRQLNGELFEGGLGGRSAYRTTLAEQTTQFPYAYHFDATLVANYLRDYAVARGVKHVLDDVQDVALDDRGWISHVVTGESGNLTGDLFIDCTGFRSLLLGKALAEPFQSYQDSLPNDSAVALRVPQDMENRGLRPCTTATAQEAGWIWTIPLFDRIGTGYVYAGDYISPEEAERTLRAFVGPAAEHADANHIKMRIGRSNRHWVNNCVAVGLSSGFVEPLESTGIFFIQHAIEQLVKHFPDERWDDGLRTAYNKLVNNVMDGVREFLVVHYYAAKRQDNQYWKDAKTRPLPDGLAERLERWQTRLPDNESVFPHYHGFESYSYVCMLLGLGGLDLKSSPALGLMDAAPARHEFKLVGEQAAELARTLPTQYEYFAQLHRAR
Protocol: Time-course experiments were done using 1.7 μM AbeH, 3.3 μM holo-AbeF, 500 μM Trp, 2.5 mM NADH in 10 mM Na/KPO4 pH 8.2 with either 50 mM NaCl or 100 mM NaBr. Reactions were incubated for 5 min at 37 °C and NADH was added to start the reactions. Aliquots of 100 μL were quenched and analyzed by RP-HPLC at various time points. Unreacted substrate and product concentrations were calculated using peak areas and standard curves of Trp, 5-Cl-Trp, and 5-Br-Trp.
Figure S4: Time-course of in vitro Trp chlorination and bromination by AbeH.
Reaction conditions: 1.7 µM AbeH, 3.3 µM holo-AbeF, 0.5 mM Trp, 2.5 mM NADH, 10 mM Na/KPO4 pH 8.2, and either 50 mM NaCl (A) or 100 mM NaBr (B). Concentration of product formed was calculated from RP-HPLC chromatogram integrated A280 peak areas compared to standard curves of integrated peak areas of known concentrations of 5-Cl-Trp and 5-Br-Trp standards. Experiments were carried out in duplicate. (A) Time course of Trp chlorination by AbeH has chlorination specific activity of 87 µmol min-1 mg-1. (B) Time course of Trp bromination by AbeH has bromination specific activity of 34 µmol min-1 mg-1.
(1 picture or pasted object on this page, not shown here)

AbeF = conditions: read-out: KD, flavin binding to AbeF; cited from earlier work
AbeH [2] = molecular target: T1, AbeH; assay: FAD fluorescence quenching titration with AbeH; format: binding, uncultured soil actinomycetes
Protocol: Quenching of FAD fluorescence quenching upon binding to AbeH was measured in the absence and presence of Trp in 20 mM Tris-HCl pH 8.0 and 100 mM NaCl using a Quantmaster 40 fluorimeter (Photon Technologies International). Trp and FAD solutions were prepared in 20 mM Tris-HCl pH 8, and concentrations were determined by absorbance at 280 and 450 nm, respectively. FAD fluorescence was measured using excitation at 450 nm (4 nm slit opening) and emission set at 525 nm (6 nm slit opening) using a fluorescence cuvette to collect 50 scans, which were averaged later during data processing in Microsoft Excel. […] Raw fluorescence intensities were corrected for the buffer, Trp, and AbeH background contributions. Quenched fluorescence intensity was plotted vs AbeH concentration and fit to eq 1 using GraphPad Prism 8.0 by nonlinear regression analysis. In eq 1, F = fractional saturation, ΔF = fluorescence quenching upon AbeH/FAD complex formation (calculated from the difference of FAD fluorescence intensity at different AbeH concentration), ΔFmax = maximum fluorescence change obtained from fit, [AbeHFAD] = FAD-bound AbeH, [AbeH]T = Total AbeH concentration, [FAD]T = Total FAD concentration, KD = equilibrium dissociation constant. […]
A. Fluorescence quenching observed from binding of Apo-AbeH ([…]) to […] FAD; […]

SMILES | Binding of Trp to preincubated AbeH/FAD by ITC, in words (AbeH/FAD; 27 mM Trp into 48 μM AbeH preincubated with 3.3 mM FAD, listed as Trp) | KD, Trp binding to AbeH/FAD, ITC (AbeH/FAD; AbeH preincubated with FAD) | Specific activity of AbeH for Trp chlorination relative to Trp bromination (AbeH [1]) | Specific activity of AbeH for chlorination of Trp (AbeH [1]; 1.7 μM AbeH, 500 μM Trp, 50 mM NaCl, 37 °C) | Specific activity of AbeH for bromination of Trp (AbeH [1]; 1.7 μM AbeH, 500 μM Trp, 100 mM NaBr, 37 °C) | AbeH chlorination specific activity (AbeH [1]; Figure S4 A, 0.5 mM Trp, 50 mM NaCl) | AbeH bromination specific activity (AbeH [1]; Figure S4 B, 0.5 mM Trp, 100 mM NaBr) | Kd (AbeF) | Kd (AbeH [2])
N[C@@H](Cc1c[nH]c2ccccc12)C(=O)O [Tryptophan, L-tryptophan] | No binding was observed; also recorded: no evidence of Trp binding | no binding | approximately 2.5 × | 87 μM min^–1 mg^–1 | 34 μM min^–1 mg^–1 | 87 µmol/min/mg | 34 µmol/min/mg | – | –
Cc1cc2nc3c(=O)[nH]c(=O)nc-3n(C[C@H](O)[C@H](O)[C@H](O)COP(=O)(O)OP(=O)(O)OC[C@H]3O[C@@H](n4cnc5c(N)ncnc54)[C@H](O)[C@@H]3O)c2cc1C [FAD] | – | – | – | – | – | – | – | 800 nM | 1600 ± 400 nM
